Measured values taken from patent publication US5462926A (Biomeasure, Inc., priority 1993, dated 1995).
Like-named read-outs stand apart in the source and are kept apart here. Where a SMILES comes first, the peptide text is derived from it. Bridges are numbered along the chain shown (N, C = ends). [ ]: non-standard residue; d: D form. 2Nal = N[C@@H](Cc1ccc2ccccc2c1)C(=O)O; d2Nal = N[C@H](Cc1ccc2ccccc2c1)C(=O)O; Lys(iPr) = CC(C)NCCCC[C@H](N)C(=O)O

Legend:
[1] = biological target: GRP receptor (Rattus norvegicus, UniProt P52500); assay: Amylase release from rat pancreatic acini (alone or Bn-stimulated); assay type: cell-based; parameters: from tissue; host or cells: dispersed pancreatic acini; conditions: for Amylase Release, analog Alone (10 μM): analog 10 μM alone, control 4 ± 1; for Amylase Release, analog Plus Bn (0.3 nM): analog 10 μM plus Bn 0.3 nM, Bn without analog 15 ± 1; for IC50: read-out: IC50 Amylase Release, GRP Receptor, Rat Pancreatic Acini
Procedure: pancreatic acini or [^3 H]myo[2H]inositolloaded NMBR transfected cell
were incubated either with no additives, the somatostatin octapeptide
analog, Bn, or NMB, or a combination for 30 min at 37° C.. Amylase
release from pancreatic acini was expressed at the indicated percent of
the total cellular amylase released during the incubation. [^3 H]IP i
expressed in dpm's. To test for inhibitory effects, the effect of
somatostatin analog (10 μM) was determined on 0.3 nM Bnstimulated

[2] = biological target: T1, rat NMB receptor (Rattus norvegicus, UniProt P24053); assay: Binding of 125I-[D-Tyr0]NMB to NMB-R transfected BALB 3T3 cells; conditions: for fold decrease in NMB receptor affinity compared with cyclo SS-octa (#1): structure-function comparison from Table 1
T1 construct: a full length NMB-preferring bombesin receptor clone generated from rat esophagus; expressed in transfected cells
T1 sequence (P24053 1-390): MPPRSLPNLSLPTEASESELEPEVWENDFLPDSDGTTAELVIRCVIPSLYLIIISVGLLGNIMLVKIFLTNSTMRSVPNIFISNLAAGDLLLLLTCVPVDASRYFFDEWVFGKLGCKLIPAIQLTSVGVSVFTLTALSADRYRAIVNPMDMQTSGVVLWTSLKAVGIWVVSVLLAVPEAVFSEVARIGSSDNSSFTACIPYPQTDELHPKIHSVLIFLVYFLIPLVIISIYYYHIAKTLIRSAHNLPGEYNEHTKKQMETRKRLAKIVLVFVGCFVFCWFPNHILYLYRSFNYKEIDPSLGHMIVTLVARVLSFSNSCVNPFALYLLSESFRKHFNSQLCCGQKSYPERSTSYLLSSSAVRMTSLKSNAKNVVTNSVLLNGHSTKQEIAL
Procedure: (§1) Cells were passaged every 3-4 days at confluence, using 0.1% trypsin in 1 mM EDTA. Rat glioblastoma C-6 tumor cells were maintained similarly and were passaged weekly at confluence. Both cell lines were cultured at 37° C. in a 5% CO2 atmosphere. Rat AR 42J pancreatic acinar cells were cultured in Dulbecco's modified Eagle's medium (DMEM) without antibiotics and supplemented with 10% (vol/vol) fetal calf serum. The incubation atmosphere consisted of 10% CO2 -90% humidified air at 37° C.

[3] = biological target: T2, NMB receptor (Rattus norvegicus, UniProt P24053); assay: [3H]inositol phosphates in NMB-R transfected cells (alone or NMB-stimulated); assay type: cell-based; parameters: a full length NMB-preferring bombesin receptor clone generated from rat esophagus; expressed in transfected cells; conditions: NMB-R transfected cells; for [3H]IP, analog Alone (10 μM): analog 10 μM alone, control 13 ± 3; for [3H]IP, analog Plus NMB (3 nM): analog 10 μM plus NMB 3 nM, NMB without analog 186 ± 58; for effect at 10 μM on NMB-stimulated increase in [3H]IP / IC50: 3 nM NMB
T2 sequence (P24053 1-390): T1 sequence (P24053 1-390)
Procedure: as §1, with “As described previously [Wada, E., et al. Neuron 6:421 (1991)], BALB 3T3 cells expressing a stably transfected rat NMB receptor (NMB-R transfected cells) were obtained using calcium phosphate precipitation of a full length NMB-preferring bombesin receptor clone generated from rat esophagus and subcloned into a modified version of the pCD2 plasmid. Cells” for “Cells”
Measurement of phosphoinositides
Total phosphoinositides in C-6 cells and in NMB-R transfected cells were determined as described previously, with minor modifications [Benya, R. V. et al. Mol. Pharmacol. 42:1058 (1992); and Wang, L-H. et al. Biochem. Jo 286:641 (1992)]. Cells were grown to confluence in 24-well plates and then loaded with 100 μCi/ml myo-[2-^3 H]inositol in Dulbecco's modified essential medium with 2% fetal bovine serum at 37° C. for 48 hrs. Cells were washed and incubated in phosphoinositide buffer (standard buffer additionally containing 10 mM LiCl, 20 mM HEPES, 2 mM CaCl2, 2% BSA, and 1.2 mM MgSO4) for 15 min and then for 60 min at 37° C. with agonists at various concentrations or with 3 nM NMB (a half-maximal effective concentration) and possible antagonists at different concentrations. Reactions were halted using ice-cold 1% HCl in methanol, and the inositol phosphates (IP) were isolated as described previously [Bologna, M. et al. Cancer 63:1714 (1989); and Endo, T. et al. J. Endocrinolo 131:313 (1991)]. Briefly, after loading of the anion exchange column, free [^3 H]glycerophosphorylinositol was removed by washing with 5 mM disodium tetraborate in 60 mM sodium formate. Total [^3 H]inositol phosphates were then eluted using 100 mM formic acid in 1.0M ammonium formate as described previously [Benya, R. V. et al. Mol. Pharmacol. 42:1058 (1992); and Wang, L-H. et al. Biochem. J. 286:641 (1992 )].

[4] = biological target: T3, GRP receptors on rat pancreatic acini (Rattus norvegicus, UniProt P52500); assay: Binding of 125I-[Tyr4]bombesin to pancreatic acini; conditions: read-out: Ki 125I-[Tyr4]Bn Binding, GRP Receptor, Rat Pancreatic Acini; Ki by Cheng method
T3 construct: from tissue; host or cells: dispersed pancreatic acini
Source text: Nonsaturable binding was<10% of total binding in all experiments.

[5] = biological target: T4, NMB receptors on C-6 cells (Rattus norvegicus, UniProt P24053); assay: Binding of 125I-[D-Tyr0]NMB to C-6 glioblastoma cells; conditions: Ki by Cheng method, read-out: Ki 125I-NMB Binding, NMB Receptor, C-6 Cells
T4 construct: endogenous in cells; host or cells: rat glioblastoma C-6 cells
T4 sequence (P24053 1-390): T1 sequence (P24053 1-390)
Procedure: Binding of ^125 I-[D-Tyr^0 ]NMB to C-6 glioblastoma and NMB-R transfected cells
Binding studies using rat glioblastoma C-6 or NMB-R transfected cells were performed as described previously [Benya, R. V. et al. Mol. Pharmacol. 42:1058 (1992); and Wang, L-H. et al. Biochem. J. 286:641 (1992)] by suspending disaggregated cells in binding buffer, which was composed of standing buffer ([…], 7.7 mM KCl, 1.0 mM EGTA, 0.02% soybean trypsin inhibitor) additionally containing 50 mM HEPES, 1 mM MgCl2, 1.5 mM CaCl2, 2.2 mM KH2 PO4, 0,015% glutamine, and 0.2% BSA (w/v) (pH 7.4). Incubations contained 75 pM ^125 I-[D-Tyr^0 ]NMB and 15×10^6 C-6 cells/ml or 2×10^6 NMB-R transfected cells/ml, for 60 min at 22° C. Nonsaturable binding of ^125 I-[D-Tyr^0 ]NMB was the amount of radioactivity associated with C-6 cells or NMB-R transfected cells when the incubation mixture contained […] NMB. Nonsaturable binding was<15% of total binding in all experiments; all values are reported herein as saturable binding (i.e., total minus nonsaturable binding).

[6] = NMB-R transfected BALB 3T3 cells, Ki by Cheng method, read-out: Ki 125I-NMB Binding, NMB Receptor, Transfected Cells
[7] = NMB-R transfected cells, value or range given for a group, read-out: K1, 125I-NMB binding to NMB-R transfected cells (text)
[8] = read-out: IC50 NMB-stimulated [3H]IP, NMB Receptor, Transfected Cells
[9] = read-out: IC50 NMB-stimulated [3H]IP, Transfected Cells (values in μM)

Sequence of GRP receptor (P52500 whole entry): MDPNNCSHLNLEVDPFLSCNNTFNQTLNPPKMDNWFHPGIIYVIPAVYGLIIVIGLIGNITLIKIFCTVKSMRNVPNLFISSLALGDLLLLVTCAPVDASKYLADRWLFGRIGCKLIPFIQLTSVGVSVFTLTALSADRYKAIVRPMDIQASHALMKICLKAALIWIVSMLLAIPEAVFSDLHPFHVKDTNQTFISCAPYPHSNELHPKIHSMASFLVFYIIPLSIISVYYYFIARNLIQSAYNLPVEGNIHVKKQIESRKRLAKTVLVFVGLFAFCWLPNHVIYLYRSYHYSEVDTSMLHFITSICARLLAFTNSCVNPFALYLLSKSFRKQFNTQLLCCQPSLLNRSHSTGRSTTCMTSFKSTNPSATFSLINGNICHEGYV
T3 sequence (P52500 whole entry): as above

SMILES | Amylase Release, analog Alone (10 μM) [1] | Amylase Release, analog Plus Bn (0.3 nM) [1] | fold decrease in NMB receptor affinity compared with cyclo SS-octa (#1) [2] | [3H]IP, analog Alone (10 μM) [3] | [3H]IP, analog Plus NMB (3 nM) [3] | fold by which cyclo SS-octa is more potent than the analog, 125I-NMB binding ([2]; NMB-R transfected cells) | effect at 10 μM on NMB-stimulated increase in [3H]IP [3] | IC50 [1] | Ki [2, 6] | Ki [2, 7] | Ki [4] | IC50 [3, 8] | Ki [5] | IC50 [3, 9]
NCCCC[C@@H]1NC(=O)[C@@H](Cc2c[nH]c3ccccc23)NC(=O)[C@H](Cc2ccc(O)cc2)NC(=O)[C@@H](NC(=O)[C@H](N)Cc2ccc3ccccc3c2)CSSC[C@@H](C(=O)N[C@@H](Cc2ccc3ccccc3c2)C(N)=O)NC(=O)[C@H](Cc2ccc3ccccc3c2)NC1=O [Analog #3, H2 -D-Nal-Cys-Tyr-D-Trp-Lys-Nal-Cys-Nal-NH2] (H-[d2Nal]CY[dW]K[2Nal]C[2Nal]-NH2; disulfide 2-7) | 3 ± 1 % total | 15 ± 1 % total | 2 to 3 fold | 11 ± 1 dym × 10^3 | 65 ± 15 dym × 10^3 | – | – | – | – | – | – | – | – | –
CC(C)[C@@H]1NC(=O)[C@H](CCCCN)NC(=O)[C@@H](Cc2c[nH]c3ccccc23)NC(=O)[C@H](Cc2ccc(O)cc2)NC(=O)[C@@H](NC(=O)[C@H](N)Cc2ccc3ccccc3c2)CSSC[C@@H](C(=O)N[C@H](C(N)=O)[C@@H](C)O)NC1=O [Analog #5] | 3 ± 1 % total | 12 ± 1 % total | 80 fold | 11 ± 2 dym × 10^3 | 179 ± 13 dym × 10^3 | 69 fold | no effect | – | – | – | – | – | – | –
C[C@@H](O)[C@H](NC(=O)[C@@H]1CSSC[C@H](NC(=O)[C@H](N)Cc2ccc3ccccc3c2)C(=O)N[C@@H](Cc2ccc(O)cc2)C(=O)N[C@H](Cc2c[nH]c3ccccc23)C(=O)N[C@@H](CCCCN)C(=O)N[C@@H]([C@@H](C)O)C(=O)N1)C(N)=O [Analog #6] | 3 ± 1 % total | 14 ± 2 % total | – | 11 ± 2 dym × 10^3 | 188 ± 30 dym × 10^3 | 69 fold | no effect | > 10 µM | 16.4 ± 4.46 µM | 14 to 19 µM | > 10 µM | > 10 µM | 8.29 ± 2.43 µM | –
CC(C)NCCCC[C@@H]1NC(=O)[C@@H](Cc2c[nH]c3ccccc23)NC(=O)[C@H](Cc2ccc(O)cc2)NC(=O)[C@@H](NC(=O)[C@H](N)Cc2ccccc2)CSSC[C@@H](C(=O)N[C@@H](Cc2ccc3ccccc3c2)C(N)=O)NC(=O)[C@H]([C@@H](C)O)NC1=O [Analog #15, H2 -D-phe-Cys-Tyr-D-Trp-Lys(ipr)-Thr-Cys-Nal-NH2] (H-[dF]CY[dW][Lys(iPr)]TC[2Nal]-NH2; disulfide 2-7) | 4 ± 2 % total | 13 ± 2 % total | – | 11 ± 1 dym × 10^3 | 67 ± 7 dym × 10^3 | 9 fold | – | > 10 µM | 2.33 ± 0.397 µM | 1.4 to 2.3 µM | 38.1 ± 21.5 µM | 9.9 ± 2.31 µM | 1.14 ± 0.105 µM | 7.2 to 9.8 µM
CC(C)[C@@H]1NC(=O)[C@H](CCCCN)NC(=O)[C@@H](Cc2c[nH]c3ccccc23)NC(=O)[C@H](Cc2ccc3ccccc3c2)NC(=O)[C@@H](NC(=O)[C@H](N)Cc2ccccc2)CSSC[C@@H](C(=O)N[C@H](C(N)=O)[C@@H](C)O)NC1=O [Analog #18] (H-[dF]C[2Nal][dW]KVCT-NH2; disulfide 2-7) | – | – | – | 11 ± 1 dym × 10^3 | 143 ± 11 dym × 10^3 | – | no effect | – | – | 14 to 19 µM | – | – | 8.32 ± 0.957 µM | > 10 µM
C[C@H](N)C(=O)NCC(=O)N[C@H]1CSSC[C@@H](C(=O)O)NC(=O)[C@H](CO)NC(=O)[C@H]([C@@H](C)O)NC(=O)[C@H](Cc2ccccc2)NC(=O)[C@H]([C@@H](C)O)NC(=O)[C@H](CCCCN)NC(=O)[C@H](Cc2c[nH]c3ccccc23)NC(=O)[C@H](Cc2ccccc2)NC(=O)[C@H](Cc2ccccc2)NC(=O)[C@H](CC(N)=O)NC(=O)[C@H](CCCCN)NC1=O [SS-14, somatostatin-14, reference compound] | 3 ± 1 % total | 12 ± 1 % total | – | – | – | – | – | – | – | – | – | – | – | –
CSCC[C@H](NC(=O)[C@H](C)NC(=O)[C@@H]1CCCN1C(=O)[C@H](CC(N)=O)NC(=O)[C@H](CO)NC(=O)[C@H](CC(N)=O)NC(=O)[C@H](C)NC(=O)[C@@H](N)CO)C(=O)N[C@@H](C)C(=O)N1CCC[C@H]1C(=O)N[C@@H](CCCNC(=N)N)C(=O)N[C@@H](CCC(=O)O)C(=O)N[C@@H](CCCNC(=N)N)C(=O)N[C@@H](CCCCN)C(=O)N[C@@H](C)C(=O)NCC(=O)N[C@H]1CSSC[C@@H](C(=O)O)NC(=O)[C@H](CO)NC(=O)[C@H]([C@@H](C)O)NC(=O)[C@H](Cc2ccccc2)NC(=O)[C@H]([C@@H](C)O)NC(=O)[C@H](CCCCN)NC(=O)[C@H](Cc2c[nH]c3ccccc23)NC(=O)[C@H](Cc2ccccc2)NC(=O)[C@H](Cc2ccccc2)NC(=O)[C@H](CC(N)=O)NC(=O)[C@H](CCCCN)NC1=O [SS-28, somatostatin-28, reference compound] | 4 ± 1 % total | 10 ± 1 % total | – | – | – | – | – | – | – | – | – | – | – | –
